Laboratory results: patent US9867833B2, “Serine/threonine kinase inhibitors” (GENENTECH, INC., priority 2013, dated 2018)

target: human ERK-2 (Mitogen Activated Kinase 1) (Homo sapiens (Human), UniProt P28482); assay: ERK-2 Enzymatic Assay; type: biochemical; details: human ERK-2 enzyme 5 nM, 25 μM ATP, S/T17 peptide substrate; isomer = configuration of CR2R3
Method in brief: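 Recombinant human ERK-2 (aa 8-360, N-terminal 6-His, E. coli) with 3-fold serially diluted compound. Per-well rates from linear fits converted to percent of control; IC50 by four-parameter fit.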

Sequence of human ERK-2 (Mitogen Activated Kinase 1) (P28482 8-360): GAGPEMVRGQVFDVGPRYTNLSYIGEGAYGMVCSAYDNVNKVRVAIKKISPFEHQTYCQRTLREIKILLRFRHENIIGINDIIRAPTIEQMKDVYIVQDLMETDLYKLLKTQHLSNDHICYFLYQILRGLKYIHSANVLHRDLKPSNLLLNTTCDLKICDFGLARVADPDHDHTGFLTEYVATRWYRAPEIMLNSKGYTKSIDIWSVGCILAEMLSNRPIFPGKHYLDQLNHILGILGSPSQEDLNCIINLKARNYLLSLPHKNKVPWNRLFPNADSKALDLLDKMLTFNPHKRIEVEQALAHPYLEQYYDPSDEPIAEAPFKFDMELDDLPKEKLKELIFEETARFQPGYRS

Compound | IC50 [nM]
Cn1nccc1Nc1cc(-c2cc3n4c(nnc4c2)[C@H](Cc2ccccc2)CO3)ccn1 [(S) I-38, 4-(3-benzyl-3,4-dihydro-5-oxa-1,2,2a^1-triazaacenaphthylen-7-yl)-N-(1-methyl-1H-pyrazol-5-yl)pyridin-2-amine] | 4.34
Cn1nccc1Nc1nccc(-c2cc3n4c(nnc4c2)[C@H](Cc2ccc(F)cc2)CO3)n1 [(S) I-44, 4-(3-(4-fluorobenzyl)-3,4-dihydro-5-oxa-1,2,2a^1-triazaacenaphthylen-7-yl)-N-(1-methyl-1H-pyrazol-5-yl)pyrimidin-2-amine] | 5
CC(C)C[C@@H]1COc2cc(-c3ccnc(Nc4ccnn4C)n3)cc3nnc1n23 [(S) I-45, 4-(3-isobutyl-3,4-dihydro-5-oxa-1,2,2a^1-triazaacenaphthylen-7-yl)-N-(1-methyl-1H-pyrazol-5-yl)pyrimidin-2-amine] | 20.9
COc1ccc(C[C@@H]2COc3cc(-c4ccnc(Nc5ccnn5C)n4)cc4nnc2n34)cc1F [(S) I-46, 4-(3-(3-fluoro-4-methoxybenzyl)-3,4-dihydro-5-oxa-1,2,2a^1-triazaacenaphthylen-7-yl)-N-(1-methyl-1H-pyrazol-5-yl)pyrimidin-2-amine] | 2.47
Cn1nccc1Nc1cc(-c2cc3n4c(nnc4c2)[C@H](Cc2ccc(Cl)cc2)CO3)ccn1 [(S) I-48, 4-(3-(4-chlorobenzyl)-3,4-dihydro-5-oxa-1,2,2a^1-triazaacenaphthylen-7-yl)-N-(1-methyl-1H-pyrazol-5-yl)pyridin-2-amine] | 12.3
COc1ccc(C[C@@H]2COc3cc(-c4ccnc(Nc5ccnn5C)n4)cc4nnc2n34)cc1 [(S) I-50, 4-(3-(4-methoxybenzyl)-3,4-dihydro-5-oxa-1,2,2a^1-triazaacenaphthylen-7-yl)-N-(1-methyl-1H-pyrazol-5-yl)pyrimidin-2-amine] | 7.12
Cn1nccc1Nc1cc(-c2cc3n4c(nnc4c2)[C@H](Cc2ccc(F)c(F)c2)CO3)ccn1 [(S) I-54, 4-(3-(3,4-difluorobenzyl)-3,4-dihydro-5-oxa-1,2,2a^1-triazaacenaphthylen-7-yl)-N-(1-methyl-1H-pyrazol-5-yl)pyridin-2-amine] | 22.3
COc1ccc(C[C@H]2CC(=O)N(C)c3cc(-c4ccnc(Nc5ccnn5C)n4)cc4nnc2n34)cc1 [(S) I-62, 9-(4-methoxybenzyl)-6-methyl-4-(2-((1-methyl-1H-pyrazol-5-yl)amino)pyrimidin-4-yl)-8,9-dihydro-1,2,2a^1,6-tetraazabenzo[cd]azulen-7(6H)-one] | 44
CN1C(=O)C[C@@H](C2CC2)c2nnc3cc(-c4ccnc(Nc5ccnn5C)n4)cc1n23 [(S) I-65, 9-cyclopropyl-6-methyl-4-(2-((1-methyl-1H-pyrazol-5-yl)amino)pyrimidin-4-yl)-8,9-dihydro-1,2,2a^1,6-tetraazabenzo[cd]azulen-7(6H)-one] | 119
CN1C(=O)C[C@@H](CC(F)(F)F)c2nnc3cc(-c4ccnc(Nc5ccnn5C)n4)cc1n23 [(S) I-71, 6-methyl-4-(2-((1-methyl-1H-pyrazol-5-yl)amino)pyrimidin-4-yl)-9-(2,2,2-trifluoroethyl)-8,9-dihydro-1,2,2a^1,6-tetraazabenzo[cd]azulen-7(6H)-one] | 189
COc1ccc(C[C@H]2CC(=O)N(C)c3cc(-c4ccnc(Nc5ccnn5C)c4)cc4nnc2n34)c(F)c1 [(S) I-74, 9-(2-fluoro-4-methoxybenzyl)-6-methyl-4-(2-((1-methyl-1H-pyrazol-5-yl)amino)pyridin-4-yl)-8,9-dihydro-1,2,2a^1,6-tetraazabenzo[cd]azulen-7(6H)-one] | 2.85
CC(C)C[C@H]1CC(=O)N(C)c2cc(-c3ccnc(Nc4ccnn4C)c3)cc3nnc1n23 [(S) I-75, 9-isobutyl-6-methyl-4-(2-((1-methyl-1H-pyrazol-5-yl)amino)pyridin-4-yl)-8,9-dihydro-1,2,2a^1,6-tetraazabenzo[cd]azulen-7(6H)-one] | 718
Cn1nccc1Nc1nccc(-c2cc3n4c(nnc4c2)[C@H](Cc2ccc(F)c(Cl)c2)CO3)n1 [(S) I-82, 4-(3-(3-chloro-4-fluorobenzyl)-3,4-dihydro-5-oxa-1,2,2a^1-triazaacenaphthylen-7-yl)-N-(1-methyl-1H-pyrazol-5-yl)pyrimidin-2-amine] | 12.4
CN1C(=O)C[C@H](Cc2ccc(Cl)cn2)c2nnc3cc(-c4ccnc(Nc5ccnn5C)n4)cc1n23 [(S) I-84, 9-((5-chloropyridin-2-yl)methyl)-6-methyl-4-(2-((1-methyl-1H-pyrazol-5-yl)amino)pyrimidin-4-yl)-8,9-dihydro-1,2,2a^1,6-tetraazabenzo[cd]azulen-7(6H)-one] | 32.7
COc1ccc(C[C@H]2CC(=O)N(C)c3cc(-c4ccnc(Nc5ccnn5C)n4)cc4nnc2n34)c(F)c1 [(S) I-85, 9-(2-fluoro-4-methoxybenzyl)-6-methyl-4-(2-((1-methyl-1H-pyrazol-5-yl)amino)pyrimidin-4-yl)-8,9-dihydro-1,2,2a^1,6-tetraazabenzo[cd]azulen-7(6H)-one] | 25.9
CC(C)[C@@H]1CC(=O)N(C)c2cc(-c3ccnc(Nc4ccnn4C)c3)cc3nnc1n23 [(S) I-87, 9-isopropyl-6-methyl-4-(2-((1-methyl-1H-pyrazol-5-yl)amino)pyridin-4-yl)-8,9-dihydro-1,2,2a^1,6-tetraazabenzo[cd]azulen-7(6H)-one] | 1000
Cn1nccc1Nc1nccc(-c2cc3n4c(nnc4c2)[C@H](Cc2cccc(Cl)c2)CO3)n1 [(S) I-88, 4-(3-(3-chlorobenzyl)-3,4-dihydro-5-oxa-1,2,2a^1-triazaacenaphthylen-7-yl)-N-(1-methyl-1H-pyrazol-5-yl)pyrimidin-2-amine] | 6.36

The next molecules have a lower IC50 than those just listed; values first:

IC50 [nM] | Compound
< 0.02 | CN1C(=O)C[C@H](Cc2ccc(Cl)cc2)c2nnc3cc(-c4ccnc(Nc5ccnn5C)c4)cc1n23 [(S) I-40, 9-(4-chlorobenzyl)-6-methyl-4-(2-((1-methyl-1H-pyrazol-5-yl)amino)pyridin-4-yl)-8,9-dihydro-1,2,2a^1,6-tetraazabenzo[cd]azulen-7(6H)-one]
0.131 | Cn1nccc1Nc1nccc(-c2cc3n4c(nnc4c2)[C@H](Cn2cc(Cl)cn2)CCO3)n1 [(S) I-42, (S)-4-(9-((4-Chloro-1H-pyrazol-1-yl)methyl)-8,9-dihydro-7H-6-oxa-1,2,2a^1-triazabenzo[cd]azulen-4-yl)-N-(1-methyl-1H-pyrazol-5-yl)pyrimidin-2-amine]
1.33 | COc1ncccc1C[C@H]1CN(C)c2cc(-c3ccnc(Nc4ccnn4C)n3)cc3nnc1n23 [(S) I-43, 4-(3-((2-methoxypyridin-3-yl)methyl)-5-methyl-4,5-dihydro-3H-1,2,2a^1,5-tetraazaacenaphthylen-7-yl)-N-(1-methyl-1H-pyrazol-5-yl)pyrimidin-2-amine]
0.465 | Cn1nccc1Nc1cc(-c2cc3n4c(nnc4c2)[C@H](Cn2cc(Cl)cn2)CCO3)ccn1 [(S) I-47, 4-(9-((4-chloro-1H-pyrazol-1-yl)methyl)-8,9-dihydro-7H-6-oxa-1,2,2a^1-triazabenzo[cd]azulen-4-yl)-N-(1-methyl-1H-pyrazol-5-yl)pyridin-2-amine]
1.39 | Cn1nccc1Nc1nccc(-c2cc3n4c(nnc4c2)[C@H](Cn2cc(C4CC4)cn2)CCO3)n1 [(S) I-56, 4-(9-((4-cyclopropyl-1H-pyrazol-1-yl)methyl)-8,9-dihydro-7H-6-oxa-1,2,2a^1-triazabenzo[cd]azulen-4-yl)-N-(1-methyl-1H-pyrazol-5-yl)pyrimidin-2-amine]
0.311 | Cn1nccc1Nc1nccc(-c2cc3n4c(nnc4c2)[C@@H](Cc2ccc(F)cc2)CCO3)n1 [(S) I-58, 4-(9-(4-fluorobenzyl)-8,9-dihydro-7H-6-oxa-1,2,2a^1-triazabenzo[cd]azulen-4-yl)-N-(1-methyl-1H-pyrazol-5-yl)pyrimidin-2-amine]
0.149 | CCC[C@H]1CC(=O)N(C)c2cc(-c3ccnc(Nc4ccnn4C)n3)cc3nnc1n23 [(S) I-64, 6-methyl-4-(2-((1-methyl-1H-pyrazol-5-yl)amino)pyrimidin-4-yl)-9-propyl-8,9-dihydro-1,2,2a^1,6-tetraazabenzo[cd]azulen-7(6H)-one]
0.02 | Cn1nccc1Nc1nccc(-c2cc3n4c(nnc4c2)[C@@H](Oc2ccc(F)cc2)CCO3)n1 [(S) I-66, 4-(9-(4-fluorophenoxy)-8,9-dihydro-7H-6-oxa-1,2,2a^1-triazabenzo[cd]azulen-4-yl)-N-(1-methyl-1H-pyrazol-5-yl)pyrimidin-2-amine]
< 0.02 | Cn1nccc1Nc1nccc(-c2cc3n4c(nnc4c2)[C@@H](Oc2cncc(Cl)c2)CCO3)n1 [(S) I-77, 4-(9-((5-chloropyridin-3-yl)oxy)-8,9-dihydro-7H-6-oxa-1,2,2a^1-triazabenzo[cd]azulen-4-yl)-N-(1-methyl-1H-pyrazol-5-yl)pyrimidin-2-amine]
< 0.02 | Cn1nccc1Nc1cc(-c2cc3n4c(nnc4c2)[C@@H](Oc2cncc(Cl)c2)CCO3)ccn1 [(S) I-78, 4-(9-((5-chloropyridin-3-yl)oxy)-8,9-dihydro-7H-6-oxa-1,2,2a^1-triazabenzo[cd]azulen-4-yl)-N-(1-methyl-1H-pyrazol-5-yl)pyridin-2-amine]
2.31 | Cn1nccc1Nc1cc(-c2cc3n4c(nnc4c2)[C@H](Cn2cc(C(F)(F)F)cn2)CCO3)ccn1 [(S) I-89, N-(1-methyl-1H-pyrazol-5-yl)-4-(9-((4-(trifluoromethyl)-1H-pyrazol-1-yl)methyl)-8,9-dihydro-7H-6-oxa-1,2,2a^1-triazabenzo[cd]azulen-4-yl)pyridin-2-amine]
< 0.02 | Cn1nccc1Nc1nccc(-c2cc3n4c(nnc4c2)[C@@H](Oc2ccccc2)CCO3)n1 [(S) I-90, N-(1-methyl-1H-pyrazol-5-yl)-4-(9-phenoxy-8,9-dihydro-7H-6-oxa-1,2,2a^1-triazabenzo[cd]azulen-4-yl)pyrimidin-2-amine]
0.035 | Cn1nccc1Nc1nccc(-c2cc3n4c(nnc4c2)[C@@H](Oc2cncc(F)c2)CCO3)n1 [(S) I-91, 4-(9-((5-fluoropyridin-3-yl)oxy)-8,9-dihydro-7H-6-oxa-1,2,2a^1-triazabenzo[cd]azulen-4-yl)-N-(1-methyl-1H-pyrazol-5-yl)pyrimidin-2-amine]
